The values that follow are results of earlier work, collected in publication PMC11007962, “First-in-human study of GFH018, a small molecule inhibitor of transforming growth factor-β receptor I inhibitor, in patients with advanced solid tumors” (BMC Cancer, 2024).

Details of series [1]: method as in PMID 25488804, PMID 26309397. To be noted: consecutive regimens; cited from earlier work.
The subject of series [2] is advanced HPV-associated malignancies. More on the design: method as in PMID 33323462. To be noted: patients with advanced HPV-associated malignancies; comparators are historical data; cited from earlier work.

As to `Cc1cccc(-c2nn3c(c2-c2ccnc4ccc(C(N)=O)cc24)CCC3)n1` [galunsertib, reference compound], the “cardiac findings in toxicology studies” value in series [1] is given as “cardiac lesions occur”.
As for “nivolumab: historical comparator in HPV-associated malignancies”, in series [2], the ORR is reported as 24%.
Consider “pembrolizumab: historical comparator in HPV-associated malignancies”, for which, in series [2], the ORR is on record as 24%.

B1: bintrafusp alfa: bifunctional fusion protein targeting TGF-β and PD-L1 (antibody, chains of the INN, looked up, V domains shown)
VH: EVQLLESGGGLVQPGGSLRLSCAASGFTFSSYIMMWVRQAPGKGLEWVSSIYPSGGITFYADTVKGRFTISRDNSKNTLYLQMNSLRAEDTAVYYCARIKLGTVTTVDYWGQGTLVTVSS
VL: QSALTQPASVSGSPGQSITISCTGTSSDVGGYNYVSWYQQHPGKAPKLMIYDVSNRPSGVSNRFSGSKSGNTASLTISGLQAEDEADYYCSSYTSSSTRVFGTGTKVTVL
For the molecule B1, the ORR in series [2] was 35.6%.
